{"source": "ChEMBL document CHEMBL4342436", "about": "“Artemisia: a promising plant for the treatment of cancer” (Bioorg Med Chem, 2020)", "key": {"MDA-MB-435": {"system": "MDA-MB-435", "assay": "Cytotoxicity against human MDA-MB-435 cells after 72 hrs by MTT assay", "format": "functional, cell-based", "settings": "MDA-MB-435, 72 h"}, "COLO 205": {"system": "COLO 205", "assay": "Cytotoxicity against human COLO205 cells after 72 hrs by MTT assay", "format": "functional, cell-based", "settings": "COLO 205, 72 h"}, "DU-145": {"system": "DU-145", "assay": "Growth inhibition of human DU145 cells at 200 uM after 24 hrs by WST-1 assay relative to control", "format": "functional", "settings": "DU-145, 24 h, read-out: GI"}, "HL-60": {"system": "HL-60", "assay": "Antiproliferative activity against human HL60 cells assessed as reduction in cell viability after 3 days by XTT assay", "format": "functional, cell-based", "settings": "HL-60, 72 h"}, "MCF7": {"system": "MCF7", "assay": "Cytotoxicity against human MCF7 cells after 24 hrs by MTT assay", "format": "functional, cell-based", "settings": "MCF7, 24 h"}, "NCI-H460": {"system": "NCI-H460", "assay": "Cytotoxicity against human NCI-H460 cells after 24 hrs by MTT assay", "format": "functional, cell-based", "settings": "NCI-H460, 24 h"}, "HepG2": {"system": "HepG2", "assay": "Cytotoxicity against human HepG2 cells after 24 hrs by MTT assay", "format": "functional, cell-based", "settings": "HepG2, 24 h"}, "[1]": {"assay": "Cytotoxicity against human QGY cells assessed as reduction in cell viability after 24 hrs by MTT assay", "format": "functional, cell-based"}, "[2]": {"assay": "Cytotoxicity against human 95-D cells assessed as reduction in cell viability after 24 hrs by MTT assay", "format": "functional, cell-based"}, "HeLa": {"system": "HeLa", "assay": "Cytotoxicity against human HeLa cells assessed as reduction in cell viability after 24 hrs by MTT assay", "format": "functional, cell-based"}, "[3]": {"assay": "Cytotoxicity against human HO8910 cells assessed as reduction in cell viability after 24 hrs by MTT assay", "format": "functional, cell-based", "settings": "HO-8910, 24 h"}, "HCT-116": {"system": "HCT-116", "assay": "Cytotoxicity against human p53 positive HCT116 cells assessed as reduction in cell viability after 48 hrs by MTT assay", "format": "functional", "settings": "HCT-116, 48 h, read-out: LD50 (the source's name)"}, "HT-29": {"system": "HT-29", "assay": "Cytotoxicity against human HT-29 cells after 24 hrs by MTT assay", "format": "functional, cell-based", "settings": "HT-29, 24 h"}, "MIA PaCa-2": {"system": "MIA PaCa-2", "assay": "Cytotoxicity against human MIAPaCa2 cells after 24 hrs by MTT assay", "format": "functional, cell-based", "settings": "MIA PaCa-2, 24 h"}, "HEp-2": {"system": "HEp-2", "assay": "Cytotoxicity against human Hep2 cells after 24 hrs by MTT assay", "format": "functional, cell-based", "settings": "HEp-2, 24 h"}, "A549": {"system": "A549", "assay": "Cytotoxicity against human A549 cells after 24 hrs by MTT assay", "format": "functional, cell-based", "settings": "A549, 24 h"}, "HCT-8": {"system": "HCT-8", "assay": "Cytotoxicity against human HCT8 cells", "format": "functional, cell-based"}, "BGC-823": {"system": "BGC-823", "assay": "Cytotoxicity against human BGC823 cells", "format": "functional, cell-based"}}, "note": "pIC50: −log10 of the molar value."}
{"molecule": "C=C1C(=O)O[C@H]2[C@H]1[C@@H](O)C[C@]1(C)O[C@@]13C(=O)C=C(C)[C@H]23", "values": [{"measurement": "pIC50", "setting": "MDA-MB-435", "value": "5.00 to 5.15"}, {"measurement": "pIC50", "setting": "COLO 205", "value": "5.00 to 5.15"}]}
{"molecule": "C=C1C(=O)O[C@H]2[C@H]1[C@@H](OC(=O)C(C)CC)CC(=C)[C@]1(O)CC=C(C)[C@H]21", "note": "(some centres undefined)", "values": [{"measurement": "pIC50", "setting": "MDA-MB-435", "value": "5.00 to 5.15"}, {"measurement": "pIC50", "setting": "COLO 205", "value": "5.00 to 5.15"}]}
{"molecule": "COc1c(O)cc2oc(Oc3ccc(O)cc3)cc(=O)c2c1O", "values": [{"measurement": "inhibition of growth at 200 µM", "setting": "DU-145", "value": 20, "unit": "%"}, {"measurement": "IC50", "setting": "HL-60", "value": "1.1 to 40.7", "unit": "µg/mL"}]}
{"molecule": "CC1=C[C@@H]2[C@@H]([C@@H](C)C(=O)O)CC[C@@](C)(O)[C@@H]2C[C@H]1O", "values": [{"measurement": "pIC50", "setting": "MCF7", "value": "4.31 to 4.57"}, {"measurement": "pIC50", "setting": "NCI-H460", "value": "4.31 to 4.57"}, {"measurement": "pIC50", "setting": "HepG2", "value": "4.31 to 4.57"}]}
{"molecule": "C=CC(=C)CC/C=C(/CCC=C(C)C)COC(C)=O", "values": [{"measurement": "pIC50", "setting": "[1]", "value": "4.13 to 4.75"}, {"measurement": "pIC50", "setting": "[2]", "value": "4.13 to 4.75"}, {"measurement": "pIC50", "setting": "HeLa", "value": "4.13 to 4.75"}, {"measurement": "pIC50", "setting": "[3]", "value": "4.13 to 4.75"}]}
{"molecule": "CCCCCCCCCCCCCCCCCCCCCCOC(=O)/C=C/c1ccc(O)cc1", "values": [{"measurement": "CC50", "setting": "HCT-116", "value": 33.8, "unit": "µM"}]}
{"molecule": "CC#CC#CC(=O)c1ccccc1", "values": [{"measurement": "pIC50", "setting": "HT-29", "value": "5.21 to 6.22"}, {"measurement": "pIC50", "setting": "MIA PaCa-2", "value": "5.21 to 6.22"}, {"measurement": "pIC50", "setting": "HEp-2", "value": "5.21 to 6.22"}, {"measurement": "pIC50", "setting": "A549", "value": "5.21 to 6.22"}, {"measurement": "IC50", "setting": "HL-60", "value": "1.1 to 40.7", "unit": "µg/mL"}]}
{"molecule": "C=C(C(=O)OC)[C@@H]1CC[C@@]2(C)C(=O)C=C[C@@](C)(O)[C@@H]2[C@H]1O", "values": [{"measurement": "pIC50", "setting": "HCT-8", "value": 5.04}, {"measurement": "pIC50", "setting": "BGC-823", "value": 5.20}]}
{"molecule": "CC1=CC(=O)C2=C(C)C[C@@H](O[C@@H]3O[C@H](CO)[C@@H](O)[C@H](O)[C@H]3O)[C@@H]3[C@@H](OC(=O)[C@H]3C)[C@@H]12", "values": [{"measurement": "pIC50", "setting": "MCF7", "value": "4.31 to 4.57"}, {"measurement": "pIC50", "setting": "NCI-H460", "value": "4.31 to 4.57"}, {"measurement": "pIC50", "setting": "HepG2", "value": "4.31 to 4.57"}]}
